Data as given in US20200282010A1, “IMMUNOGENIC COMPOSITIONS AND USES THEREFOR” (Epiaxis Therapeutics Pty Ltd, priority 2017, published 2020).

Legend:
[1] = system: PBMC cells isolated from CR and PD melanoma liquid biopsies; test: RT-PCR expression of IL-2, IFN-γ and TNF-α in PBMCs from melanoma patient liquid biopsies; assay type: cell-based, human; settings: FIG. 2B
Experimental: FIG. 2 is a photographic and graphical representation depicting a PKC-θ resistance signature in CD8^+ T-cells from BRAF negative melanoma patients. A) Melanoma patient formalin-fixed paraffin-embedded (FFPE) tissue from primary tumor baseline biopsy for either a complete response (CR), stable disease (SD) or progressive disease (PD) was processed by 3D high resolution microscopy using a Leica Bond RX Stainer. FFPE tissues were fixed and immunofluorescence microscopy was performed probing with primary antibodies to anti-PD1, anti-PKC-θ (T538p) and anti-CD8 with DAPI. Representative images for each dataset are shown. Graph plots represent the TCFI values for CD8, TNFI for PKC-θ and TCFI for PD1 measured using ImageJ minus background (N=40 cells per a patient sample). B) Peripheral blood mononuclear cells (PBMCs) isolated from melanoma patient liquid biopsies were pre-clinically screened with either control or PKCθi nuclear peptide inhibitor. PBMC Samples were screened in triplicate for expression of IL-2, IFN-γ and TNF-α. C) Melanoma patient FFPE tissue from primary tumor baseline biopsy for CR, SD and two PD cohorts defined by responder or resistant to Dual Immunotherapy was processed by 3D high resolution microscopy using a Leica Bond RX Stainer. FFPE tissues were fixed and immunofluorescence microscopy was performed probing with primary antibodies to anti-PD1, anti-PKC-θ (T538p), anti-CD8 and anti-ZEB1 with DAPI. Representative images for each dataset are shown. Graph plots represent the TCFI values for CD8, TNFI for PKC-θ and TNFI for ZEB1 measured using ImageJ minus background (N=40 cells per a patient sample).
IL-2, IFN-γ and TNF-α are markers of T-cell activation and effector capacity whereas ZEB1 is a negative regulator of T-cell responses and is linked with T-cell effector inhibition as well as cancer progression. Accordingly, the expression of these biomarkers was investigated in the context of modulating the PKC-θ pathway. Employing RT-PCR, the present inventors profiled expression of the effect of PKCθi in PBMC cells isolated from CR and PD melanoma liquid biopsies.

MCF7 cells = test: Cell proliferation (WST-1 assay); assay type: cell-based; settings: FIG. 1E
Text: (§1) FIG. 1 is a graphical, schematic and photographic representation showing that PKC-θ can be targeted for therapeutic intervention. A) Depicts the strength of binding of recombinant purified His6-PKC-θ to increasing concentrations of different subunits and subunit combinations (α2, α2β1, and β1) of the importin α/β heterodimer nuclear transport receptor using an AlphaScreen® binding assay as described in Wagstaff et al. (2011. Journal of Biomolecular Screening 16 (2):192-200). B-C) Depicts protein structure of PKC-θ indicating binding locations for the PKC-θ peptide inhibitor, PKCθi (RKEIDPPFRPKVK), including the nuclear localization sequence (NLS) of PKC-θ. D) The specificity of PKCθi was examined on cells treated with this peptide inhibitor. Cells were screened with primary antibodies to PKC-θ (T538p), PKC-β2, PKC-β1, PKC-α, PKC-ε and PKC-γ. The nuclear to cytoplasmic fluorescence ratio (Fn/c) using the equation: Fn/c=(Fn−Fb)/(Fc−Fb), where Fn is nuclear fluorescence, Fc is cytoplasmic fluorescence, and Fb is background fluorescence was used to determine the impact on nuclear translocation/localization. […] EC^50 of inhibitors calculated using GraphPad PRISM software. F) The PKC-θ kinase activity was measured using the PKC kinase activity kit from ENZO life sciences and recombinant PKC-θ; C27 is an inhibitor of PKC-θ kinase activity, which is disclosed in Jimenez et al. (2013. […]

PKC-α = molecular target: T1, PKC-α (Homo sapiens, UniProt P17252); test: Nuclear localization of PKC-α (Fn/c, immunofluorescence), specificity; assay type: cell-based; settings: MCF7 breast cancer cell line; FIG. 1D
T1 construct: endogenous in cells; host or cells: MCF7
Text: as §1

Sequence: RKEIDPPFRPKVK [PKCθi]
- expression of IFN-γ ([1]; CR patient cohort): some induction
- expression of IL-2 ([1]; CR patient cohort): some induction
- expression of TNF-α ([1]; CR patient cohort): some induction
- expression of IFN-γ ([1]; PD patient cohort): significantly induced
- expression of IL-2 ([1]; PD patient cohort): significantly induced
- expression of TNF-α ([1]; PD patient cohort): significantly induced
- proliferation of MCF7 cells (MCF7 cells): significantly inhibit
- nuclear localization of PKC-α (PKC-α): no effect
